Results from patent US20230123334A1, “AMINO LIPID COMPOUND, PREPARATION METHOD THEREFOR, AND APPLICATION THEREOF” (SHENZHEN SHENXIN BIOTECHNOLOGY CO., LTD., priority 2020, published 2023).

What follows are compounds tested on HEK293 cells (assay: Preliminary screening as DNA vectors, GFP transfection of HEK293 cells). Details: HEK293 cells; lipid/DOPE liposome with 75 ng plasmid DNA (psin-EGFP-IRES-Puro); number of cells expressing GFP divided by total number of nuclei (Hoechst).
Type: cell-based
Outline: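 First, amino lipid and DOPE were vortexed in sodium acetate buffer (pH 5.6) to form liposomes. Next, these were held with 75 ng EGFP plasmid at room temperature for 30 min. Finally, HEK293 cells were added, cultured at 37° C., Hoechst-stained, and GFP+/total nuclei scored by imaging.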

`CCCCCCCCCCCCN(CCCCCCCCCCCC)c1nc(NCCCCCCCCCCC)nc(NCC2CCN(C)CC2)n1` [Compound N112N12D10] was tested, and the “Absolute DNA transfection efficiency in HEK293 cells” value (shortened to “Absolute DNA transfection efficiency”) was 0.7%.

Same assay, conditions: amino lipid/DOPE liposome with 75 ng plasmid DNA (psin-EGFP-IRES-Puro); number of GFP-expressing cells divided by total nuclei (Hoechst)

Going from `CCCCCCCCCCCNc1nc(NCCCN(C)C)nc(SCCCCCCCCC)n1` [S9N11 D6] to `CCCCCCCCCCCCCNc1nc(NCCN(C)C)nc(SCCCCCCC)n1` [S7N13 D1], the “Absolute DNA transfection efficiency” value falls from 55.4% to 11.7%.

First: CCCCCCCCCCCCCCCNc1nc(NCCCN2CCOCC2)nc(SCCCCCCCCC)n1 [S9N15 D8]
Second: CCCCCCCCCCCCCCCNc1nc(NCCN2CCOCC2)nc(SCCCCCCCCCC)n1 [S10N15 D2]
The “Absolute DNA transfection efficiency” value of the first is higher: 5.3% for the first, 1.4% for the second.

Compared with `CCCCCCCCCCSc1nc(NCCCCCC)nc(NCCN2CCCC2)n1` [S10N6 D3], `CCCCCCCCCCCNc1nc(NCCN2CCCCC2)nc(SCCCCCC)n1` [S6N11 D4] is lower in “Absolute DNA transfection efficiency” value: 7.3% for the first, 3.3% for the second.

First: CCCCCCCCCCCCCCCSc1nc(NCCCCCCCC)nc(NCCCN(C)C)n1 [S15N8 D6]
Second: CCCCCCCCCCCCNc1nc(NCCN(C)C)nc(SCCCCCCCCCCC)n1 [S11N12 D1]
The “Absolute DNA transfection efficiency” value of the first is higher: 23.9% for the first, 16.2% for the second.

First: CCCCCCCCCCCCCCCCCCNc1nc(NCC2CCN(C)CC2)nc(SCCCCCCCCC)n1 [S9N18 D10]
Second: CCCCCCCCCCCCCCCSc1nc(NCCCCCCCCCCCCC)nc(NCC2CCN(C)CC2)n1 [S15N13 D10]
The “Absolute DNA transfection efficiency” value of the first is higher: 11.2% for the first, 0.0% for the second.

Going from `CCCCCCCNc1nc(NCCCN2CCOCC2)nc(SCCCCCCC)n1` [S7N7 D8] to `CCCCCCCCSc1nc(NCCCCCC)nc(NCCCN2CCOCC2)n1` [S8N6 D8], the “Absolute DNA transfection efficiency” value falls from 5.3% to 0.0%.

Compared with `CCCCCCSc1nc(NCCN2CCN(C)CC2)nc(SCCCCCC)n1` [S6S6 D5], `CCCCCCCCSc1nc(NCCN2CCN(C)CC2)nc(SCCCCCCC)n1` [S7S8 D5] is higher in “Absolute DNA transfection efficiency” value: 9.1% for the first, 11.2% for the second.

First: CCCCCCCCNc1nc(NCCCN2CCOCC2)nc(SCCCCCCC)n1 [S7N8 D8]
Second: CCCCCCCCSc1nc(NCCCCCCC)nc(NCCCN2CCOCC2)n1 [S8N7 D8]
The “Absolute DNA transfection efficiency” value of the first is higher: 2.7% for the first, 0.8% for the second.

Compared with `CCCCCCCCCCCCNc1nc(NCC2CCN(C)CC2)nc(SCCCCCCC)n1` [S7N12 D10], `CCCCCCCCCCSc1nc(NCC2CCN(C)CC2)nc(SCCCCCCC)n1` [S7S10 D10] is lower in “Absolute DNA transfection efficiency” value: 45.7% for the first, 25.2% for the second.

Going from `CCCCCCCCCCCCCCCCNc1nc(NCCN2CCCC2)nc(SCCCCCCCCCCCCCCC)n1` [S15N16 D3] to `CCCCCCCCCCCCCCCCNc1nc(NCCN2CCCC2)nc(SCCCCCCCCCCCCCCCC)n1` [S16N16 D3], the “Absolute DNA transfection efficiency” value rises from 0.6% to 1.6%.

Compared with `CCCCCCCCCCCCCCCCNc1nc(NCCN(CC)CC)nc(SCCCCCCCCCCCCCCCC)n1` [S16N16 D7], `CCCCCCCCCCCCCCCCCCSc1nc(NCCCCCCCCCCCCC)nc(NCCN(CC)CC)n1` [S18N13 D7] is lower in “Absolute DNA transfection efficiency” value: 0.2% for the first, 0.0% for the second.

Compared with `CCCCCCCCCCCCCCCCNc1nc(NCCCN(C)C)nc(SCCCCCCCCCCCCCCCC)n1` [S16N16 D6], `CCCCCCCCCCCCCCCCCCSc1nc(NCCCCCCCCCCCCCCC)nc(NCCN(C)C)n1` [S18N15 D1] is higher in “Absolute DNA transfection efficiency” value: 0.1% for the first, 0.2% for the second.

Compared with `CCCCCCCCCCCCCCSc1nc(NCCN2CCCC2)nc(SCCCCCCC)n1` [S7S14 D3], `CCCCCCCCCCCCCCSc1nc(NCCN2CCCCC2)nc(SCCCCCC)n1` [S6S14 D4] is higher in “Absolute DNA transfection efficiency” value: 8.4% for the first, 12.0% for the second.

First: CCCCCCCCCCCCCCCCCCNc1nc(NCCN2CCCC2)nc(SCCCCCCCC)n1 [S8N18 D3]
Second: CCCCCCCCCCCCCCCNc1nc(NCCN2CCCC2)nc(SCCCCCCCCCCC)n1 [S11N15 D3]
The “Absolute DNA transfection efficiency” value of the first is lower: 6.7% for the first, 24.5% for the second.

Compared with `CCCCCCCCCSc1nc(NCCCCCC)nc(NCCN(C)C)n1` [S9N6 D1], `CCCCCCCCCNc1nc(NCCN(CC)CC)nc(SCCCCCC)n1` [S6N9 D7] is lower in “Absolute DNA transfection efficiency” value: 16.1% for the first, 1.1% for the second.

Going from `CCCCCCCCCCCCCCCCSc1nc(NCCCCCCCCCCCCC)nc(NCCN(CC)CC)n1` [S16N13 D7] to `CCCCCCCCCCCCCCCCSc1nc(NCCCCCCCCCCCC)nc(NCCN(CC)CC)n1` [S16N12 D7], the “Absolute DNA transfection efficiency” value falls from 3.7% to 0.7%.

First: CCCCCCCCCCCCCCCNc1nc(NCCN2CCCCC2)nc(SCCCCCC)n1 [S6N15 D4]
Second: CCCCCCCCCCCNc1nc(NCCN2CCCCC2)nc(SCCCCCCCC)n1 [S8N11 D4]
The “Absolute DNA transfection efficiency” value of the first is lower: 1.7% for the first, 14.3% for the second.

First: CCCCCCCCCCCCCCCSc1nc(NCCCCCCCCCCC)nc(NCCN2CCCCC2)n1 [S15N11 D4]
Second: CCCCCCCCCCCCCCCCCCSc1nc(NCCCCCCC)nc(NCCN2CCCCC2)n1 [S18N7 D4]
The “Absolute DNA transfection efficiency” value of the first is higher: 8.9% for the first, 3.5% for the second.

Compared with `CCCCCCCCCCCCCCCNc1nc(NCC2CCN(C)CC2)nc(SCCCCCCCCCCCCCCC)n1` [S15N15 D10], `CCCCCCCCCCCCCCCCCCNc1nc(NCC2CCN(C)CC2)nc(SCCCCCCCCCCC)n1` [S11N18 D10] is higher in “Absolute DNA transfection efficiency” value: 0.3% for the first, 5.7% for the second.

Compared with `CCCCCCCCCCCNc1nc(NCCN(CC)CC)nc(SCCCCCCCCC)n1` [S9N11 D7], `CCCCCCCCCCCSc1nc(NCCCCCCCCC)nc(NCCN(CC)CC)n1` [S11N9 D7] is lower in “Absolute DNA transfection efficiency” value: 15.7% for the first, 2.0% for the second.

First: CCCCCCCCCCCCCCCCNc1nc(NCCN2CCCCC2)nc(SCCCCCCCC)n1 [S8N16 D4]
Second: CCCCCCCCCCCCCCCCCCNc1nc(NCCN2CCCCC2)nc(SCCCCCC)n1 [S6N18 D4]
The “Absolute DNA transfection efficiency” value of the first is lower: 1.0% for the first, 3.5% for the second.

Going from `CCCCCCCCCCCCCCCCSc1nc(NCCN(CC)CC)nc(SCCCCCC)n1` [S6S16 D7] to `CCCCCCCCCCCCCCCCCCSc1nc(NCCN(CC)CC)nc(SCCCCCCC)n1` [S7S18 D7], the “Absolute DNA transfection efficiency” value rises from 3.7% to 7.3%.

First: CCCCCCCCCCCCCCCSc1nc(NCCCCCCCCCCCCC)nc(NCCN2CCOCC2)n1 [S15N13 D2]
Second: CCCCCCCCCCCCCCCNc1nc(NCCN2CCCCC2)nc(SCCCCCCCCCCCCCC)n1 [S14N15 D4]
The “Absolute DNA transfection efficiency” value of the first is lower: 0.0% for the first, 0.4% for the second.

First: CCCCCCCCCCCCNc1nc(NCCCN2CCN(C)CC2)nc(SCCCCCCC)n1 [S7N12 D9]
Second: CCCCCCCCCCCSc1nc(NCCCCCCC)nc(NCCN2CCN(C)CC2)n1 [S11N7 D5]
The “Absolute DNA transfection efficiency” value of the first is higher: 46.4% for the first, 22.8% for the second.

Compared with `CCCCCCCCCCCCNc1nc(NCCN2CCCC2)nc(SCCCCCCCCCCC)n1` [S11N12 D3], `CCCCCCCCCCCCCCCSc1nc(NCCCCCCCCC)nc(NCCN2CCCC2)n1` [S15N9 D3] is higher in “Absolute DNA transfection efficiency” value: 22.8% for the first, 30.1% for the second.

Compared with `CCCCCCCCCCCCN(CCCCCCCCCCCC)c1nc(NCCN(C)C)nc(SCCCCCCCCCC)n1` [S10^2N12 D1], `CCCCCCCCCCCCCCCSc1nc(NCCN(C)C)nc(N(CCCCCCCCCCCC)CCCCCCCCCCCC)n1` [S15^2N12 D1] is lower in “Absolute DNA transfection efficiency” value: 3.2% for the first, 0.0% for the second.

First: CCCCCCCCCCCCCCSc1nc(NCCN2CCN(C)CC2)nc(SCCCCCCC)n1 [S7S14 D5]
Second: CCCCCCCCSc1nc(NCCCN2CCN(C)CC2)nc(SCCCCCCCC)n1 [S8S8 D9]
The “Absolute DNA transfection efficiency” value of the first is lower: 10.7% for the first, 12.1% for the second.

First: CCCCCCCCCCCCCCCSc1nc(NCCN(CC)CC)nc(N(CCCCCCCCCCCC)CCCCCCCCCCCC)n1 [S15^2N12 D7]
Second: CCCCCCCCCCCCN(CCCCCCCCCCCC)c1nc(NCCN2CCCC2)nc(SCCCCCCCCCC)n1 [S10^2N12 D3]
The “Absolute DNA transfection efficiency” value of the first is lower: 0.2% for the first, 1.1% for the second.

Compared with `CCCCCCCCCCCSc1nc(NCCCCCC)nc(NCCN2CCOCC2)n1` [S11N6 D2], `CCCCCCCCCNc1nc(NCCN2CCCC2)nc(SCCCCCCCCC)n1` [S9N9 D3] is higher in “Absolute DNA transfection efficiency” value: 19.0% for the first, 54.9% for the second.

First: CCCCCCCCCCCCCNc1nc(NCCN2CCCC2)nc(SCCCCCC)n1 [S6N13 D3]
Second: CCCCCCCCNc1nc(NCCN2CCCC2)nc(SCCCCCC)n1 [S6N8 D3]
The “Absolute DNA transfection efficiency” value of the first is higher: 9.9% for the first, 2.0% for the second.

First: CCCCCCCCCCCCCCCCNc1nc(NCCN(CC)CC)nc(SCCCCCC)n1 [S6N16 D7]
Second: CCCCCCCCCCCCCCCCNc1nc(NCCN(C)C)nc(SCCCCCC)n1 [S6N16 D1]
The “Absolute DNA transfection efficiency” value of the first is lower: 2.6% for the first, 6.6% for the second.

Going from `CCCCCCCCCCCCN(CCCCCCCCCCCC)c1nc(NCCCN2CCN(C)CC2)nc(SCCCCCC)n1` [S6^2N12 D9] to `CCCCCCCCCCCCN(CCCCCCCCCCCC)c1nc(NCCN2CCN(C)CC2)nc(SCCCCCCCCCC)n1` [S10^2N12 D5], the “Absolute DNA transfection efficiency” value rises from 0.4% to 0.9%.

First: CCCCCCCCCCSc1nc(NCCCN2CCOCC2)nc(SCCCCCCCC)n1 [S8S10 D8]
Second: CCCCCCCCCCCSc1nc(NCCN2CCOCC2)nc(SCCCCCCC)n1 [S7S11 D2]
The “Absolute DNA transfection efficiency” value of the first is lower: 13.7% for the first, 27.3% for the second.

Going from `CCCCCCCCCCCCCCCCNc1nc(NCCCN2CCOCC2)nc(SCCCCCC)n1` [S6N16 D8] to `CCCCCCCCCCCCCCCCCCNc1nc(NCCN(C)C)nc(SCCCCCCC)n1` [S7N18 D1], the “Absolute DNA transfection efficiency” value rises from 4.2% to 10.6%.

Compared with `CCCCCCCCCSc1nc(NCCN2CCCCC2)nc(SCCCCCC)n1` [S6S9 D4], `CCCCCCCCCCCCNc1nc(NCCN2CCN(C)CC2)nc(SCCCCCC)n1` [S6N12 D5] is higher in “Absolute DNA transfection efficiency” value: 1.8% for the first, 25.9% for the second.
